Test results published in patent US20250281564A1, “DYSREGULATION OF NEUROPROTEASOMES BY APOE ISOFORMS DRIVES ENDOGENOUS TAU AGGREGATION” (The Trustees of Columbia University in the City of New York, priority 2022, published 2025).

What was measured:
[1] = tested on: phosphorylated Tau; test: Immunohistochemistry for phosphorylated Tau (AT8) in hTau-KI mice after stereotactic injection; details: 72 hours
[2] = tested on: Thioflavin S-positive aggregates; test: Thioflavin S staining of hippocampal sections of hTau-KI mice after stereotactic injection; details: 72 hours
[3] = tested on: p62, LC3bI/II, Ulk1; test: Autophagy marker immunoblot in primary neurons; type: cell-based, mouse; details: 12 hours, DIV14 WT primary cortical neurons
Excerpt: (§1) (FIG. 4A) (Top) Structure of azide-PEG24-epoxomicin handle to enable rapid conjugation of linkers to global proteasome inhibitor epoxomicin using Click chemistry. (Bottom) Structure of Neuroproteasome-specific inhibitor impermeant Biotin-PEG24-Epoxomicin (iBEp). (FIG. 4B) Assessing permeability of iBEp in primary neurons. […] Cytosolic (Cyto) and membrane (Mem) fractions were immunoblotted using indicated antibodies. (FIG. 4C) Proteasome catalytic activity of membrane (Mem) and cytosolic (Cyto) fractions of neurons treated with iBEp. […] Proteasome catalytic activity was assessed by monitoring degradation of Suc-LLVY-AMC; proteasome-dependent cleavage of the substrate increases AMC fluorescence. N=3 biological replicates. **** p<0.0001 by One-Way ANOVA. (FIG. 4D) Primary neurons treated with iBEp probed for autophagy markers. […] Lysates were immunoblotted using indicated antibodies against common autophagy markers. Quantification of p62, LC3b, and Ulk1 intensities normalized to Actin. […] (FIG. 4E) Schematic to analyze changes in sarkosyl-soluble and insoluble proteomes in response to neuroproteasome inhibition. […] Sarkosyl-soluble and insoluble fractions were labeled with Tandem Mass Tags (TMTpro) for quantitative mass spectrometry. (FIG. 4F) Differential enrichment of proteins in the sarkosyl-soluble fraction of neurons treated with iBEp versus DMSO was analyzed and plotted as log 2-fold change vs-log 10 (P-value). Green dots represent proteins enriched in the iBEp treatment compared to DMSO treatment. (FIG. 4G) Graphs plotting the log 2-fold change of select Neuroproteasome substrates enriched in the sarkosyl-soluble fraction from MS analysis in (FIG. 4F) compared to UPS substrates and autophagy markers ** p<0.01 (adjusted p-value after multiple corrections). (FIG. 4H) Differential enrichment of proteins in the sarkosyl-insoluble fraction of neurons treated with iBEp versus DMSO was analyzed and plotted as log 2-fold change vs −log 10 (P-value). Green dots represent proteins enriched in the iBEp treatment compared to DMSO treatment. (FIG. 4I) (Left) Identification of proteins which are exclusively enriched in the insoluble fraction with no corresponding change in the soluble fraction (red). Plk2 represents the only protein which is enriched in the soluble fraction with no corresponding change in the insoluble fraction (green). Proteins plotted as differences in log 2 fold changes. (Right) Graphs plotting the log 2 fold changes of insoluble Tau (top) and soluble Tau (bottom) enriched in neurons treated with iBEp vs DMSO. ** p<0.01 (adjusted p-value after multiple corrections).
FIG. 5A-5G: Neuroproteasomes are differentially regulated by ApoE isoforms to determine formation of endogenous sarkosyl-insoluble Tau inclusions. […]

[4] = tested on: phosphorylated Tau; test: Immunocytochemistry for phosphorylated Tau (CP13) in hTau-KI hippocampal neurons; type: cell-based, mouse; details: 12 hours, primary hippocampal hTau-KI neurons, vs controls
[5] = tested on: primary cortical neurons; test: Permeability of iBEp in primary cortical neurons: membrane fractionation and biotin blot; type: cell-based, mouse; details: 1 μM, 1, 6 and 24 hours, cytosolic vs membrane fraction
Excerpt: (§2) (FIG. 4A) (Top) Structure of azide-PEG24-epoxomicin handle to enable rapid conjugation of linkers to global proteasome inhibitor epoxomicin using Click chemistry. (Bottom) Structure of Neuroproteasome-specific inhibitor impermeant Biotin-PEG24-Epoxomicin (iBEp). (FIG. 4B) Assessing permeability of iBEp in primary neurons. […] Cytosolic (Cyto) and membrane (Mem) fractions were immunoblotted using indicated antibodies. (FIG. 4C) Proteasome catalytic activity of membrane (Mem) and cytosolic (Cyto) fractions of neurons treated with iBEp. […] Proteasome catalytic activity was assessed by monitoring degradation of Suc-LLVY-AMC; proteasome-dependent cleavage of the substrate increases AMC fluorescence. N=3 biological replicates. **** p<0.0001 by One-Way ANOVA. (FIG. 4D) Primary neurons treated with iBEp probed for autophagy markers. […] Quantification of p62, LC3b, and Ulk1 intensities normalized to Actin. […] Sarkosyl-soluble and insoluble fractions were labeled with Tandem Mass Tags (TMTpro) for quantitative mass spectrometry. (FIG. 4F) Differential enrichment of proteins in the sarkosyl-soluble fraction of neurons treated with iBEp versus DMSO was analyzed and plotted as log 2-fold change vs-log 10 (P-value). […] (FIG. 4H) Differential enrichment of proteins in the sarkosyl-insoluble fraction of neurons treated with iBEp versus DMSO was analyzed and plotted as log 2-fold change vs −log 10 (P-value). […]

[6] = tested on: Tau; test: Quantitative TMT phosphoproteomics of Tau in iBEp-treated WT neurons; type: cell-based, mouse; details: 1 μM, 1, 6 or 24 hours, WT primary neurons
Excerpt: We noticed that neuroproteasome inhibition induces the shift of sarkosyl-insoluble Tau into a species which migrates at a higher molecular weight on an SDS-PAGE gel, at approximately 64 kDa (FIG. 5A, FIG. 5B, FIG. 5D, FIG. 5F, FIG. 5G). Similar shifts in molecular weight of Tau are observed in the AD brain and is a hallmark phenotype of multiple neurodegenerative disorders (109, 110). This molecular weight shift can in part be due to Tau phosphorylation at many residues. Therefore, we wanted to address whether iBEp-induced Tau aggregates are phosphorylated. Rather than profiling by a panel of phospho-specific antibodies against Tau, we took a more unbiased approach and measured Tau phosphorylation by quantitative phosphoproteomics. We treated primary WT neurons with iBEp for either 1, 6, or 24 hours and then performed sarkosyl fractionations.

[7] = tested on: primary cortical neurons; test: Quantitative TMT proteomics of sarkosyl-soluble and sarkosyl-insoluble fractions; type: cell-based, mouse; details: 1 and 6 hours
Excerpt: as §1, with “(FIG. 4I) (Left) Identification of proteins which are exclusively enriched in the insoluble fraction with no corresponding change in the soluble fraction (red). Plk2 represents the only protein which is enriched in the soluble fraction with no corresponding change in the insoluble fraction (green). Proteins plotted as differences in log 2 fold changes. (Right) Graphs plotting the log 2 fold changes of insoluble Tau (top) and soluble Tau (bottom) enriched in neurons treated with iBEp vs DMSO. ** p<0.01 (adjusted p-value after multiple corrections).” left out

[8] = tested on: newly synthesized Tau; test: Puro-PLA-Tau: proximity ligation with puromycylation for newly synthesized Tau; type: cell-based
Excerpt: Analysis was done blinded to experimental condition. […] Scale bar=100 μm (right).

[9] = target: T1, cytosolic proteasomes (Mus musculus, UniProt O55234+P70195+Q60692); test: Suc-LLVY-AMC proteasome activity, cytosolic fraction of iBEp-treated neurons; type: cell-based; details: 6 hours, DIV14 neurons, vs DMSO
T1 construct: endogenous in cells; host or cells: primary cortical neurons from WT mice (DIV13-14); membrane and cytosolic fractions
Excerpt: as §2

[10] = iBEp permeability in vivo: stereotactic CA1 injection and membrane fractionation; design: species or system mouse; details: stereotactic injection into CA1, 72 hours
[11] = tested on: Tau; test: Sarkosyl-insoluble Tau in hippocampus of hTau-KI mice after stereotactic injection; type: in vivo, mouse; details: 6.4 μM iBEp stereotactic, contralateral vehicle, 72 hours
[12] = tested on: Tau; test: iBEp dose range in hTau/ApoE double KI primary neurons, sarkosyl-insoluble Tau; type: cell-based, mouse
[13] = target: proteasome (Homo sapiens, UniProt P28072+P28074+Q99436); test: Efficacy against the proteasome relative to the parent inhibitor; type: biochemical
Excerpt: (§3) We next tested the potency and selectivity of iBEp relative to Epoxomicin. Epoxomicin covalently and irreversibly binds the catalytic β subunits of the proteasome-therefore, the biotin moiety on iBEp serves as a tracer to detect whether proteasomes are inhibited by monitoring biotin signal on an SDS-PAGE gel (83, 87-89). […] This is supported by previous data that modification of the non-reactive end of epoxomicin has been shown not to change the selectivity of Epoxomicin for the proteasome (83, 87-89). […] We therefore chose doses of inhibitor where the effective concentration of the inhibitor was similar to previous studies using Epoxomicin alone and well within the acceptable range of efficacy given how potent Epoxomicin is as a proteasome inhibitor.
Many of our experiments rely on the use of iBEp because the biotin tracer on an irreversible and specific inhibitor allows us to track which proteasomes are inhibited. However, we wanted to validate our findings using a proteasome inhibitor with a distinct mechanism of action from Epoxomicin. We therefore modified MG132, a reversible peptide aldehyde proteasome inhibitor, with a sulfonated biotin linker on the nonreactive N-terminus (84). […] Instead, we turned to cellular and functional readouts of permeability. […]

[14] = tested on: endogenous mouse Tau; test: Sarkosyl fractionation and Tau immunoblot, WT primary cortical neurons; type: cell-based; details: 1 μM, 12 hours, vs DMSO
Excerpt: (§4) (FIG. 5A) Effect of neuroproteasome-specific inhibitor iBEp on Tau aggregation in primary neurons. […] Quantification of soluble and insoluble murine Tau (mTau) intensities normalized to soluble GAPDH. […] (FIG. 5B) Effect of neuroproteasome inhibition on aggregation of human Tau (hTau). […] (FIG. 5C) Generation of reversible neuroproteasome inhibitors to test effects of neuroproteasome inhibition. (Top) Structure of Sulfo-MG132 (SulfoMG). […] (FIG. 5D) Effect of reversible neuroproteasome inhibition using SulfoMG on Tau aggregation. […] Quantification of soluble and insoluble Tau intensities were normalized to soluble GAPDH. Data (right) are mean±SEM normalized respective to DMSO controls. […] (FIG. 5E) Testing iBEp permeability in vivo. […] 72 hours post injection, hippocampi were isolated and subjected to membrane fractionation without detergent. […] (FIG. 5F) Effect of neuroproteasome inhibition on Tau aggregation in vivo.

[15] = target: T2, neuroproteasomes (Mus musculus, UniProt O55234+P70195+Q60692); test: Suc-LLVY-AMC proteasome activity, membrane fraction of iBEp-treated neurons; type: cell-based; details: 6 hours, DIV14 neurons, vs DMSO
T2 construct: endogenous in cells; host or cells: primary cortical neurons from WT mice (DIV13-14); membrane and cytosolic fractions
Excerpt: as §2

[16] = tested on: human Tau; test: Sarkosyl fractionation and Tau immunoblot, hTau-KI primary cortical neurons; type: cell-based; details: 1 μM, 12 hours, vs DMSO
Excerpt: as §4

[17] = target: T3, proteasome (Mus musculus, UniProt O55234+P70195+Q60692); test: Covalent biotinylation of proteins in iBEp-treated neurons (SDS-PAGE biotin signal); type: cell-based
T3 construct: endogenous in cells
Excerpt: as §3

[18] = dose range 1000-1.6 nM, hTau/ApoE double KI neurons

In the case of `C[C@@H]1C[C@@H]([C@H](O)CC2CC(=O)NC(=O)C2)C(=O)[C@@H](C)C1` [cycloheximide, reference compound], the “AT8 staining, co-injection with iBEp vs contralateral iBEp alone” value ([1]; hTau-KI mice, stereotactic) is reported as “completely eliminated AT8 staining” and the “ThioS+ staining, co-injection with iBEp vs iBEp alone” value ([2]; hTau-KI mice, stereotactic) is reported as “complete return to baseline of ThioS+ staining”.
In the case of `CC[C@H](C)[C@H](NC(=O)CCOCCOCCOCCOCCOCCOCCOCCOCCOCCOCCOCCOCCOCCOCCOCCOCCOCCOCCOCCOCCOCCOCCOCCOCCn1cc(COCCOCCOCCOCCNC(=O)CCCC[C@@H]2SC[C@@H]3NC(=O)N[C@@H]32)nn1)C(=O)N[C@H](C(=O)N[C@H](C(=O)N[C@@H](CC(C)C)C(=O)[C@@]1(C)CO1)[C@@H](C)O)[C@@H](C)CC` [iBEp, Biotin-PEG24-Epoxomicin], the “phosphorylated Tau (AT8) signal in injected hippocampi” value ([1]; stereotactic injection, vs contralateral control) is reported as “threefold induction of phosphorylated Tau signal”, the LC3bI/II [3] is reported as “no change in either p62 or LC3bI/II levels” and the p62 levels [3] is reported as “no change in either p62 or LC3bI/II levels”. For the same compound, the “CP13 (phosphorylated S202 Tau) signal” value [4] was “significant elevation of CP13 signal”, the “location of the biotin signal of covalent proteasome inhibition (permeability)” value [5] was “only in the membrane fraction, and not in the cytosol” and the “ThioS staining in the CA1 region of hippocampi” value ([2]; stereotactic injection, vs vehicle) was “strong increase in ThioS staining”. The “Tau phosphorylation sites (human S202, T205, T217, S404)” value [6] was “time-dependent increase in Tau phosphorylation at only 4 of 26 identified sites”, the “cell penetration judged from proteomics (no UPS substrates or autophagy markers accumulate)” value ([7]; DIV12-14 primary cortical neurons) was “does not detectably penetrate cells” and the “number of proteins increasing in the soluble fraction” value ([7]; vs DMSO) was “over 250 proteins”. The “number of proteins that become sarkosyl-insoluble” value ([7]; vs DMSO) was 52 proteins, the “increase in Puro-PLA-Tau signal relative to DMSO” value ([8]; DIV14 primary hippocampal neurons, puromycin 10 minutes) was ~3.5 fold and the “newly synthesized Tau puncta greater than 24 nm in diameter” value ([8]; normalized to puncta number per size bin with DMSO) was “over twofold increase”. The cytosolic proteasome activity [9] was “remains completely intact”, the “injected concentration at which penetration into the cytosol is observed” value [10] was 64 µM and the “sarkosyl-insoluble Tau in hippocampi of hTau-KI mice” value [11] was “strong increase of sarkosyl-insoluble Tau”. The “sarkosyl-insoluble Tau in hTau/E4-dKI neurons at the lowest dose” value ([12]; dose range 1000, 200, 40, 8 and 1.6 nM) was “accumulation of sarkosyl-insoluble Tau in hTau/E4-dKI neurons”, the “susceptibility to Tau aggregation, E4 neurons vs E3 neurons (more susceptible)” value [12, 18] was “over 25 fold” and the “susceptibility to Tau aggregation, hTau/E2-dKI vs hTau/E3-dKI neurons (less susceptible)” value [12, 18] was “over 10 fold”. For the same compound, the “efficacy against the proteasome relative to the parent inhibitor” value [13] was “moderately reduces the efficacy of iBEp relative to Epoxomicin”, the “sarkosyl-insoluble Tau, WT neurons” value [14] was “significant increase in sarkosyl-insoluble Tau” and the “proteasome activity in the membrane fraction” value [15] was “almost entirely abrogated”. For the same compound, the “sarkosyl-insoluble Tau, hTau-KI neurons” value [16] was “significant increase in sarkosyl-insoluble Tau” and the “proteins covalently biotinylated in treated neurons (specificity)” value [17] was “covalent biotinylation of only three proteins”.
In the case of Sulfo-MG132 [SulfoMG], the “efficacy against the proteasome relative to the parent inhibitor” value [13] is reported as “significant inhibition of proteasomes using SulfoMG despite the moderate loss of efficacy compared to MG132” and the “sarkosyl-insoluble Tau, hTau-KI neurons” value [16] is reported as “induces similar partitioning of hTau into the sarkosyl-insoluble fraction as iBEp”.
